Key:
Format in all cases: cell-based
human TLR7 = biological target: T1, human TLR7 (Homo sapiens, UniProt Q9NYK1); experiment: TLR7 inhibition reporter assay (HEK-Blue SEAP reporter, gardiquimod stimulation); settings: HEK-Blue cells overexpressing human TLR7, SEAP reporter, gardiquimod 7.5 μM, 22 hour incubation
T1 construct: host or cells: HEK-Blue cells
T1 sequence (Q9NYK1 27-1049): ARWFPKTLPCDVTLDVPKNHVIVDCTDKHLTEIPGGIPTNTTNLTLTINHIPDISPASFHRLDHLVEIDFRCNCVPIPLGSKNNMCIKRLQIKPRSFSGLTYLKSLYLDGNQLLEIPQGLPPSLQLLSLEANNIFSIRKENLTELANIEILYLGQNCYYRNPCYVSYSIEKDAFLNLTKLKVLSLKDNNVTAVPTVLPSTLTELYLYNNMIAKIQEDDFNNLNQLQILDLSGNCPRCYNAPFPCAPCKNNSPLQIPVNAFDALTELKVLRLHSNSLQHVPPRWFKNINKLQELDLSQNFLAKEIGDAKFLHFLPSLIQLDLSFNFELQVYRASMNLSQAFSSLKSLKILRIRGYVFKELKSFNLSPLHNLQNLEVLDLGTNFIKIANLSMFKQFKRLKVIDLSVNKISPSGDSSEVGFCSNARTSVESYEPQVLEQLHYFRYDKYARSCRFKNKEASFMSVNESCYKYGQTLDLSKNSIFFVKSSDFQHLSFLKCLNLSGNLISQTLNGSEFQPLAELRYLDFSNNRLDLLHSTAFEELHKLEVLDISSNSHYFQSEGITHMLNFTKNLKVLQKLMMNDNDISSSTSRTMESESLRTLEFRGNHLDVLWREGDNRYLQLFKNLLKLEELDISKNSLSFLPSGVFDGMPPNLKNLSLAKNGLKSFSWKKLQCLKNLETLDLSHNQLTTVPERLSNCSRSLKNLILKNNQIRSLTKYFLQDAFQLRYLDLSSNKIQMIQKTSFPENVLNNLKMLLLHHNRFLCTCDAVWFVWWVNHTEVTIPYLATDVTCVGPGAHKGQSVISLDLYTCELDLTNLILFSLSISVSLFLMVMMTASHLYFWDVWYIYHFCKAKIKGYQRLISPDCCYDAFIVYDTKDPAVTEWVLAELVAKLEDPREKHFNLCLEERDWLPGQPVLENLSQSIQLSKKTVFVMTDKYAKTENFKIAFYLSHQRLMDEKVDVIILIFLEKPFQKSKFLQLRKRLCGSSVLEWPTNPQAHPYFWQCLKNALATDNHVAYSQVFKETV
How it was run: (§1)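 Screening used HEK-Blue cells overexpressing one human TLR (7, 8 or 9) and an IFN-β minimal promoter–NF-κB/AP-1 SEAP construct. Stimulation lasted 22 h at 37 °C with receptor-specific agonist: gardiquimod, R848 or ODN2006 at 7.5 μM, 15.9 μM and 5 nM.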

human TLR9 = biological target: T2, human TLR9 (Homo sapiens, UniProt Q9NR96); experiment: TLR9 inhibition reporter assay (HEK-Blue SEAP reporter, ODN2006 stimulation); settings: HEK-Blue cells overexpressing human TLR9, SEAP reporter, ODN2006 5 nM, 22 hour incubation
T2 construct: host or cells: HEK-Blue cells
T2 sequence (Q9NR96 26-1032): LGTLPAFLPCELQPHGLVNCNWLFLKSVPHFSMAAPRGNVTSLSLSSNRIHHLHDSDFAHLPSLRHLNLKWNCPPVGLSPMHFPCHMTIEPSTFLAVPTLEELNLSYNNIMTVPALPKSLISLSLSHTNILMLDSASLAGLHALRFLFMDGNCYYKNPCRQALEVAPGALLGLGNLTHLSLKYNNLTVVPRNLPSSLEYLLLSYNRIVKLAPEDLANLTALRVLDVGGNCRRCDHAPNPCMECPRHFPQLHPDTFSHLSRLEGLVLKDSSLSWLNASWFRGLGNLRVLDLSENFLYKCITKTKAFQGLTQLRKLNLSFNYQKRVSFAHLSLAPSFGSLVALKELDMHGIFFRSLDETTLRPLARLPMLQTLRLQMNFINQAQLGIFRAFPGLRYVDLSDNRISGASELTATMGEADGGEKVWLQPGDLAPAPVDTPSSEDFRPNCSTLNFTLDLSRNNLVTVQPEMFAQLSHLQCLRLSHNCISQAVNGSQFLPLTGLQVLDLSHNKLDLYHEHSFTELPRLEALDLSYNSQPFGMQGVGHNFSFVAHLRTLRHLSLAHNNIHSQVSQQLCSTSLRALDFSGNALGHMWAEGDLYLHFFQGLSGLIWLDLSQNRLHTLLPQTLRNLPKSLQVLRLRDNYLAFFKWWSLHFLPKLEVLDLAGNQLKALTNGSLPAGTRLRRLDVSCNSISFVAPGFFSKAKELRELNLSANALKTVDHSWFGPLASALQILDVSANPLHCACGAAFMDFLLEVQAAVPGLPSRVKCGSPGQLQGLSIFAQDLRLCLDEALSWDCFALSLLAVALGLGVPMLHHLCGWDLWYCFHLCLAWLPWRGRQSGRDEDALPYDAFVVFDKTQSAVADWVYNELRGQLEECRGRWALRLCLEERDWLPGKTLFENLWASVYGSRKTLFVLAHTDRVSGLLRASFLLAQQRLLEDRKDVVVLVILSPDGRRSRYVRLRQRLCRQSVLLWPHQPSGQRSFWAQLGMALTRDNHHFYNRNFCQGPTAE
How it was run: as §1

human TLR8 = biological target: T3, human TLR8 (Homo sapiens, UniProt Q9NR97); experiment: TLR8 inhibition reporter assay (HEK-Blue SEAP reporter, R848 stimulation); settings: HEK-Blue cells overexpressing human TLR8, SEAP reporter, R848 15.9 μM, 22 hour incubation
T3 construct: host or cells: HEK-Blue cells
T3 sequence (Q9NR97 27-1041): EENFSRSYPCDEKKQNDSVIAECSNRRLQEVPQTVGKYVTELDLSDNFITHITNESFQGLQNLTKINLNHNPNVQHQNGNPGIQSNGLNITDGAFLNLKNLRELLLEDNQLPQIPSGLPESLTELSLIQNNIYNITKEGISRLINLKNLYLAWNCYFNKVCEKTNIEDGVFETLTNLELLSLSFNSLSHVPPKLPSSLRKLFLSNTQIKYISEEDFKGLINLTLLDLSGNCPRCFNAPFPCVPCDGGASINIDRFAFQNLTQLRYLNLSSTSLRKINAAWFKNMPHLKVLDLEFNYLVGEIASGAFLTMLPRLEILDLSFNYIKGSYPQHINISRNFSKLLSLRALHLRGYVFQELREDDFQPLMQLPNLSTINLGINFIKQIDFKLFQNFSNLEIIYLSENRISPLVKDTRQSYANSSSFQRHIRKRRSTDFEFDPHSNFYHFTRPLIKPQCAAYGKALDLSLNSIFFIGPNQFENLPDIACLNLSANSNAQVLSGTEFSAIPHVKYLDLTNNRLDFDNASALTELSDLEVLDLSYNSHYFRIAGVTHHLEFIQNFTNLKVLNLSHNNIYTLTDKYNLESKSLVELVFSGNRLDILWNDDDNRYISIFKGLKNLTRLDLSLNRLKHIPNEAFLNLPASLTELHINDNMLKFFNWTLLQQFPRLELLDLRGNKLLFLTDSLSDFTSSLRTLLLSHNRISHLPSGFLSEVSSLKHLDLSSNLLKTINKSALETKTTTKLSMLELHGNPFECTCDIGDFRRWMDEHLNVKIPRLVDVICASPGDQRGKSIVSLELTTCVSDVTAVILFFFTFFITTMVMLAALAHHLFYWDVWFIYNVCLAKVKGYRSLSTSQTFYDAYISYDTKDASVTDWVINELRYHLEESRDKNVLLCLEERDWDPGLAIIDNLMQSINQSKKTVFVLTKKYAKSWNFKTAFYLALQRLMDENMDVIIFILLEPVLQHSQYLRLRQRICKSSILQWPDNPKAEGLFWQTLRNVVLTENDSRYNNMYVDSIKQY
How it was run: as §1

IC50 (human TLR7) [nM]	IC50 (human TLR9) [nM]	IC50 (human TLR8) [nM]	SMILES
245	16200	33.4	CNC(=O)CN1CCC(c2ccc3[nH]c(-c4nn(C)c(=O)c(C)c4C)c(C(C)C)c3c2)CC1 [Example 131, 2-(4-(3-isopropyl-2-(1,4,5-trimethyl-6-oxo-1,6-dihydropyridazin-3-yl)-1H-indol-5-yl)piperidin-1-yl)-N-methylacetamide]
9	25500	15.1	CCn1cc(-c2[nH]c3ccc(C4CCN(CC(=O)NC)CC4)cc3c2C(C)C)cc(C)c1=O [Example 132, 2-(4-(2-(1-ethyl-5-methyl-6-oxo-1,6-dihydropyridin-3-yl)-3-isopropyl-1H-indol-5-yl)piperidin-1-yl)-N-methylacetamide]
24.1	14900	6.2	CCn1cc(-c2[nH]c3ccc(C4CCN(CC(=O)N(C)C)CC4)cc3c2C(C)C)cc(C)c1=O [Example 133, 2-(4-(2-(1-ethyl-5-methyl-6-oxo-1,6-dihydropyridin-3-yl)-3-isopropyl-1H-indol-5-yl)piperidin-1-yl)-N,N-dimethylacetamide]
11.9	3460	8.7	Cc1c(-c2[nH]c3ccc(C4CCN(CC(=O)N(C)C)CC4)cc3c2C(C)C)cn(C)c(=O)c1C [Example 134, 2-(4-(3-isopropyl-2-(1,4,5-trimethyl-6-oxo-1,6-dihydropyridin-3-yl)-1H-indol-5-yl)piperidin-1-yl)-N,N-dimethylacetamide]
5.3	19000	5.6	CNC(=O)CN1CCC(c2ccc3[nH]c(-c4cn(C)c(=O)c(C)c4C)c(C(C)C)c3c2)CC1 [Example 135, 2-(4-(3-isopropyl-2-(1,4,5-trimethyl-6-oxo-1,6-dihydropyridin-3-yl)-1H-indol-5-yl)piperidin-1-yl)-N-methylacetamide]
12	1950	13.6	CCn1cc(-c2[nH]c3ccc(C4CCN(CC(=O)N(C)C)CC4)cc3c2C(C)C)c(C)c(C)c1=O [Example 136, 2-(4-(2-(1-ethyl-4,5-dimethyl-6-oxo-1,6-dihydropyridin-3-yl)-3-isopropyl-1H-indol-5-yl)piperidin-1-yl)-N,N-dimethylacetamide]
19.9	11500	12.3	CCn1cc(-c2[nH]c3ccc(C4CCN(CC(=O)NC)CC4)cc3c2C(C)C)c(C)c(C)c1=O [Example 137, 2-(4-(2-(1-ethyl-4,5-dimethyl-6-oxo-1,6-dihydropyridin-3-yl)-3-isopropyl-1H-indol-5-yl)piperidin-1-yl)-N-methylacetamide]
17.5	7610	5.2	Cc1cc(-c2[nH]c3ccc(C4CCN(CC(=O)N(C)C)CC4)cc3c2C(C)C)c(C)n(C)c1=O [Example 138, 2-(4-(3-isopropyl-2-(1,2,5-trimethyl-6-oxo-1,6-dihydropyridin-3-yl)-1H-indol-5-yl)piperidin-1-yl)-N,N-dimethylacetamide]
15.4	10400	4.2	CNC(=O)CN1CCC(c2ccc3[nH]c(-c4cc(C)c(=O)n(C)c4C)c(C(C)C)c3c2)CC1 [Example 139, 2-(4-(3-isopropyl-2-(1,2,5-trimethyl-6-oxo-1,6-dihydropyridin-3-yl)-1H-indol-5-yl)piperidin-1-yl)-N-methylacetamide]
47.8	21900	39.7	CNC(=O)CN1CCC(c2ccc3[nH]c(-c4cn(C)c(=O)c(OC)c4C)c(C(C)C)c3c2)CC1 [Example 140, 2-(4-(3-isopropyl-2-(5-methoxy-1,4-dimethyl-6-oxo-1,6-dihydropyridin-3-yl)-1H-indol-5-yl)piperidin-1-yl)-N-methylacetamide]
27.9	4460	37.3	COc1c(C)c(-c2[nH]c3ccc(C4CCN(CC(=O)N(C)C)CC4)cc3c2C(C)C)cn(C)c1=O [Example 141, 2-(4-(3-isopropyl-2-(5-methoxy-1,4-dimethyl-6-oxo-1,6-dihydropyridin-3-yl)-1H-indol-5-yl)piperidin-1-yl)-N,N-dimethylacetamide]
205	7650	95.4	CNC(=O)CN1CCC(c2ccc3[nH]c(-c4cc(OC)c(=O)n(C)c4C)c(C(C)C)c3c2)CC1 [Example 142, 2-(4-(3-isopropyl-2-(5-methoxy-1,2-dimethyl-6-oxo-1,6-dihydropyridin-3-yl)-1H-indol-5-yl)piperidin-1-yl)-N-methylacetamide]
413	2720	99.7	COc1cc(-c2[nH]c3ccc(C4CCN(CC(=O)N(C)C)CC4)cc3c2C(C)C)c(C)n(C)c1=O [Example 143, 2-(4-(3-isopropyl-2-(5-methoxy-1,2-dimethyl-6-oxo-1,6-dihydropyridin-3-yl)-1H-indol-5-yl)piperidin-1-yl)-N,N-dimethylacetamide]
